The values below come from PMC10285260, “Processive kinetics in the three-step lanosterol 14α-demethylation reaction catalyzed by human cytochrome P450 51A1” (The Journal of Biological Chemistry, 2023).

Experiment [1] has as its target T1, human P450 51A1 (Homo sapiens, UniProt Q16850).
T1 sequence (Q16850 1-509): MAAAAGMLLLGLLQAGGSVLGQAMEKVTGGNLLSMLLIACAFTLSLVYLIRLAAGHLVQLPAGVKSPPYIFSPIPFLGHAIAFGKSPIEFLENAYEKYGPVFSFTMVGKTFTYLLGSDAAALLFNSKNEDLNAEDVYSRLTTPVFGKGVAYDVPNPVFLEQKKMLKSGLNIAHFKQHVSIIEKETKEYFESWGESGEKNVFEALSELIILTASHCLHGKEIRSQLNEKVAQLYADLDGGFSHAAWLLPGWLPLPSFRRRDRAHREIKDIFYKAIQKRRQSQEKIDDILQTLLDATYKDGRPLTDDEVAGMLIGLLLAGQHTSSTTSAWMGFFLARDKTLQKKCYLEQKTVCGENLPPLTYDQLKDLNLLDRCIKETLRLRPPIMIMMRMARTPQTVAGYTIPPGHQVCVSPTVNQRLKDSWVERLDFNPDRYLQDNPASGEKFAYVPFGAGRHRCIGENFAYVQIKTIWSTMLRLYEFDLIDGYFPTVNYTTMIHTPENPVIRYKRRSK
Nature of the experiment: Oxidation of dihydroagnosterol by human P450 51A1 (LC-UV). In kind it is biochemical. On the set-up: made in house; host or cells: Escherichia coli. As for the experimental part:
The possibility existed that this molecule could be a substrate. […] However, on the basis of the UV and mass spectra and literature precedents ([38], [39]), we have assigned the structure as 4,4′-dimethylcholesta-7,9,14-trienol. The UV spectrum retains (Fig. 6) the detailed chromophore of agnosterol (Fig. S23) plus an additional transition at higher wavelength, as expected based on the UV spectrum of FF-MAS (Fig. S18).
Figure 6 Oxidation of dihydroagnosterol by human P450 51A1. The incubation included 0.1 μM P450 51A1 and 10 μM dihydroagnosterol and ran for 10 min at 37 °C in the absence and presence of NADPH. The products were extracted and analyzed by UPLC-UV and UPLC-MS. A, UPLC chromatogram (UV, 192 and 245 nm). B, mass spectrum [M+H-H2O]^+, calculated for C29H45, 393.3516; found, 393.3493 (−5.9 ppm) and assigned structure. C, UV spectrum (from tR 7.3 min peak of A). UPLC, ultra-performance liquid chromatography.

Experiment [2] concerns the target T1, human P450 51A1. The experiment is described as follows: Inhibition of dihydrolanosterol 14-demethylation (oxidation to dihydro FF-MAS). Further details: made in house; host or cells: Escherichia coli. In kind it is biochemical. An excerpt:
Agnosterol (Fig. 2) is a common Δ^7,14 contaminant of commercial lanosterol preparations (Fig. S22) ([25], [36]). We also encountered this molecule and its derivatives, with its characteristic UV spectra derived from our synthesis beginning with 7-dehydrocholesterol (Figs. S1 and S17). The most likely entry point is the m-chloroperbenzoic acid epoxidation (Fig. S1, step 7) ([37]). […] The contaminant could be removed by preparative HPLC (C18, CH3CN, see Supporting Information).
epi-Dihydrolanosterol, which appears to be an obscure natural product ([32]), was recovered as a side product in one of the synthetic steps and shown to bind to human P450 51A1 tightly and be demethylated at a similar rate as the common β-hydroxy isomer (Figs 5B and 7A), behavior similar to that earlier reported for the yeast (Saccharomyces cerevisiae) enzyme ([34]). An H-bond between the sterol C3-OH and the main chain oxygen of a P450 51 residue preceding the beginning of the β1-4 strand is observed in four P450 51 structures in the Protein Data Bank: Trypanosoma brucei [3P99] ([48]), Trypanosoma cruzi [6FMO] ([49]), human [6UEZ] ([19]), plus a sterol-forming bacterium, Methylococcus capsulatus [7SNM] ([50]). Whether this interaction is replaced by another with epi-lanosterol is presently a point of conjecture and future research. […]

One may read the IC50 as the concentration needed to halve the response being measured. Low values mean greater potency in that assay, high ones weaker potency in that assay. As for `CC(C)CCCC(C)[C@H]1CC[C@@]2(C)C3=CCC4C(C)(C)[C@@H](O)CC[C@]4(C)C3=CC[C@]12C` (stereo partly drawn) [dihydroagnosterol], the “rate of disappearance relative to that of dihydrolanosterol” value at human P450 51A1 [1] is given as “one-half”. The rate of disappearance on human P450 51A1 [1] (0.1 μM P450 51A1, 10 μM dihydroagnosterol, 37 °C) is ~10 min⁻¹. Further, the IC50 on human P450 51A1 [2] was ≥ 10 µM.
